Measured values reported in patent publication US20240307426A1, “USE OF SGLT-2 INHIBITORS FOR THE PREVENTION AND/OR TREATMENT OF RENAL DISEASES IN NON-HUMAN MAMMALS” (BOEHRINGER INGELHEIM VETMEDICA GMBH, priority 2021, published 2024).

Tested on: cats with chronic kidney disease (CKD)
Experiment: Exploratory clinical field trial in cats with CKD (Example 3)
Format: in vivo, cat
Design: key to IRIS Stage (based on serum creatinine level) / IRIS Stage (based on creatinine level) / IRIS Stage (based on the creatinine level): IRIS CKD stage assigned from serum creatinine (IRIS 2019)
Conditions: for Phosphorus: ref 0.8-2.2; for Serum creatinine: ref 0.9-2.3; for Potassium: ref 3.3-5.8; for Hematocrit: ref 28.2-52.7; for UPC: ref <0.33
Procedure: The clinical trial was conducted at three animal clinics. Overall, 9 cats with chronic kidney disease (CKD) were included in the study and treated once daily orally with 1 mg/kg bodyweight velagliflozin for up to 150 days (depending on the time of enrollment).
Diagnosis of CKD was based on two measurements of serum creatinine concentration at least 2 weeks apart from each other (historical value and screening, and value at screening in fasted cats), as recommended by the International Renal Interest Society (IRIS 2019). In order to qualify for enrollment, serum creatinine levels needed to be ≥2.2 mg/dL, but <5.0 mg/dL.
Disease staging throughout the study was performed based on serum creatinine levels in accordance with the IRIS CKD staging (IRIS 2019).
All other cats were treated for >90 days had at least data for two time points under treatment available and were therefore evaluated. Progression of the disease, as well as IRIS staging in this study was based on the most reliable biomarker: serum creatinine.

[1] = case 200-006, Visit 2 (Day 90), 1 mg/kg po once daily
[2] = case 200-006, Visit 3 (Day 121), 1 mg/kg po once daily
[3] = case 200-006, screening visit (before treatment)
[4] = case 200-007, 1 mg/kg po once daily
[5] = case 200-007, 1 mg/kg po once daily, whole study
[6] = case 200-007, Visit 1 (Day 30), 1 mg/kg po once daily
[7] = case 200-007, Visit 2 (Day 90), 1 mg/kg po once daily
[8] = case 200-007, Visit 3 (Day 114), 1 mg/kg po once daily
[9] = case 200-007, screening visit (before treatment)
[10] = case 300-003 (IRIS stage 2), removed early on day 30
[11] = case 300-008, 1 mg/kg po once daily
[12] = case 300-008, 1 mg/kg po once daily, whole study
[13] = case 300-008, Visit 1 (Day 30), 1 mg/kg po once daily
[14] = case 300-008, Visit 2 (Day 90), 1 mg/kg po once daily
[15] = case 300-008, Visit 3 (Day 103), 1 mg/kg po once daily
[16] = case 300-008, screening visit (before treatment)
[17] = case 400-004, 1 mg/kg po once daily
[18] = case 400-004, 1 mg/kg po once daily, whole study
[19] = case 400-004, Visit 1 (Day 30), 1 mg/kg po once daily
[20] = case 400-004, Visit 2 (Day 90), 1 mg/kg po once daily
[21] = case 400-004, Visit 3 (Day 119), 1 mg/kg po once daily
[22] = case 400-004, screening visit (before treatment)

N#Cc1ccc([C@@H]2O[C@H](CO)[C@@H](O)[C@H](O)[C@H]2O)cc1Cc1ccc(C2CC2)cc1 [velagliflozin, Velagliflozin]
Systolic blood pressure [1]: 155.3 mmHg | Phosphorus [1]: 1.3 mmol/L | Serum creatinine [1]: 2.7 mg/dL | Potassium [1]: 4.4 mmol/L | Hematocrit [1]: 37.3% | UPC [1]: 0.2 | BUN [2]: 42 mg/dL | IRIS Stage (based on the creatinine level) [2]: 2 | Owner assessment - quality of life [2]: good | Owner assessment of the appetite [2]: normal | Owner assessment of the drinking behavior [2]: excessive | Systolic blood pressure [2]: 140.0 mmHg | Phosphorus [2]: 2.0 mmol/L | Serum creatinine [2]: 2.8 mg/dL | Potassium [2]: 4.3 mmol/L | Hematocrit [2]: 35.5% | BUN [3]: 34 mg/dL | IRIS Stage (based on the creatinine level) [3]: 2 | Owner assessment - quality of life [3]: good | Owner assessment of the appetite [3]: poor | Owner assessment of the drinking behavior [3]: excessive | Systolic blood pressure [3]: 141.3 mmHg | Phosphorus [3]: 1.3 mmol/L | Serum creatinine [3]: 2.6 mg/dL | Potassium [3]: 3.8 mmol/L | Hematocrit [3]: 37.9% | UPC [3]: 0.1 | adverse events [4]: three occasions of vomitus, two occasions of inappetence and one occasion of mild anaemia, leukocytopenia | expected glucosuric effect [4]: confirmed | Serum creatinine levels (course) [5]: increased mildly | Serum potassium levels (course) [5]: remained stable within the reference range | Total urine protein and UPC [5]: mildly increased | drinking behavior (course) [5]: improved to normal | quality of life (course) [5]: changed from very good to good | the cat's condition [5]: stable | BUN [6]: 40 mg/dL | IRIS Stage (based on the creatinine level) [6]: 3 | Owner assessment - quality of life [6]: very good | Owner assessment of the appetite [6]: normal | Owner assessment of the drinking behavior [6]: normal | Systolic blood pressure [6]: 122.7 mmHg | Phosphorus [6]: 1.0 mmol/L | Serum creatinine [6]: 3.2 mg/dL | Potassium [6]: 4.0 mmol/L | Hematocrit [6]: 35.9% | BUN [7]: 42 mg/dL | IRIS Stage (based on the creatinine level) [7]: 3 | Owner assessment - quality of life [7]: good | Owner assessment of the appetite [7]: normal | Owner assessment of the drinking behavior [7]: normal | Systolic blood pressure [7]: 130.7 mmHg | Phosphorus [7]: 1.3 mmol/L | Serum creatinine [7]: 3.3 mg/dL | Potassium [7]: 4.4 mmol/L | Hematocrit [7]: 32.6% | UPC [7]: 0.2 | BUN [8]: 43 mg/dL | IRIS Stage (based on the creatinine level) [8]: 3 | Owner assessment - quality of life [8]: good | Owner assessment of the appetite [8]: normal | Owner assessment of the drinking behavior [8]: normal | Systolic blood pressure [8]: 130.7 mmHg | Phosphorus [8]: 1.3 mmol/L | Serum creatinine [8]: 3.2 mg/dL | Potassium [8]: 3.9 mmol/L | Hematocrit [8]: 28.9% | BUN [9]: 41 mg/dL | IRIS Stage (based on the creatinine level) [9]: 3 | Owner assessment - quality of life [9]: very good | Owner assessment of the appetite [9]: normal | Owner assessment of the drinking behavior [9]: excessive | Systolic blood pressure [9]: 139.3 mmHg | Phosphorus [9]: 1.2 mmol/L | Serum creatinine [9]: 2.9 mg/dL | Potassium [9]: 4.4 mmol/L | Hematocrit [9]: 37.6% | UPC [9]: 0.1 | evaluated clinical signs [10]: no worsening of the evaluated clinical signs | laboratory parameters [10]: stable laboratory parameters | reported events [10]: Tooth pain, anorexia and feline odontoclastic-resorptive lesions (FORL) were reported | adverse events [11]: No adverse event was reported | expected glucosuric effect [11]: confirmed | Drinking behavior according to owner's assessment (course) [12]: improved from excessive to normal | condition (clinical signs and biochemical parameters) [12]: stabilization of the condition | course of serum creatinine concentration [12]: remained stable | serum potassium and phosphate levels [12]: remained in the reference range | total urine protein and UPC ratio [12]: remained within the reference range | BUN [13]: 65 mg/dL | IRIS Stage (based on creatinine level) [13]: 2 | Owner assessment - quality of life [13]: good | Owner assessment of the appetite [13]: poor | Owner assessment of the drinking behavior [13]: normal | Systolic blood pressure [13]: 150.0 mmHg | Phosphorus [13]: 1.4 mmol/L | Serum creatinine [13]: 1.9 mg/dL | Potassium [13]: 4.9 mmol/L | Hematocrit [13]: 28.8% | BUN [14]: 64 mg/dL | IRIS Stage (based on creatinine level) [14]: 2 | Owner assessment - quality of life [14]: good | Owner assessment of the appetite [14]: normal | Systolic blood pressure [14]: 150.0 mmHg | Phosphorus [14]: 1.5 mmol/L | Serum creatinine [14]: 2.4 mg/dL | Potassium [14]: 4.4 mmol/L | Hematocrit [14]: 32.4% | UPC [14]: 0.2 | BUN [15]: 54 mg/dL | IRIS Stage (based on creatinine level) [15]: 2 | Owner assessment - quality of life [15]: good | Owner assessment of the appetite [15]: normal | Owner assessment of the drinking behavior [15]: normal | Systolic blood pressure [15]: 148.7 mmHg | Phosphorus [15]: 1.6 mmol/L | Serum creatinine [15]: 2.6 mg/dL | Potassium [15]: 4.4 mmol/L | Hematocrit [15]: 28.2% | UPC [15]: 0.3 | BUN [16]: 36 mg/dL | IRIS Stage (based on creatinine level) [16]: 2 | Owner assessment - quality of life [16]: good | Owner assessment of the appetite [16]: normal | Owner assessment of the drinking behavior [16]: excessive | Systolic blood pressure [16]: 148.0 mmHg | Phosphorus [16]: 1.3 mmol/L | Serum creatinine [16]: 2.4 mg/dL | Potassium [16]: 4.9 mmol/L | Hematocrit [16]: 26.7% | UPC [16]: 0.2 | adverse events [17]: One non-serious adverse event was reported (owner reported diarrhea) | expected glucosuric effect [17]: confirmed | Drinking behavior according to the owner (course) [18]: improved from excessive to normal | UPC ratio (course) [18]: remained in the normal range | condition (clinical signs and biochemical parameters) [18]: improvement of the condition | course of BUN concentration [18]: decrease | course of serum creatinine concentration [18]: decrease | serum potassium and phosphate levels [18]: remained within the reference range | total urine protein [18]: reduced | BUN [19]: 20.0 mg/dL | IRIS Stage (based on serum creatinine level) [19]: 3 | Owner assessment - quality of life [19]: good | Owner assessment of the appetite [19]: normal | Owner assessment of the drinking behavior [19]: normal | Systolic blood pressure [19]: 142.7 mmHg | Phosphorus [19]: 1.3 mmol/L | Serum creatinine [19]: 4.0 mg/dL | Potassium [19]: 3.9 mmol/L | Hematocrit [19]: 41.0% | BUN [20]: 19.3 mg/dL | IRIS Stage (based on serum creatinine level) [20]: 3 | Owner assessment - quality of life [20]: good | Owner assessment of the appetite [20]: poor | Owner assessment of the drinking behavior [20]: normal | Systolic blood pressure [20]: 157.3 mmHg | Phosphorus [20]: 1.3 mmol/L | Serum creatinine [20]: 3.2 mg/dL | Potassium [20]: 3.8 mmol/L | Hematocrit [20]: 45.0% | UPC [20]: 0.1 | BUN [21]: 24.3 mg/dL | IRIS Stage (based on serum creatinine level) [21]: 3 | Owner assessment - quality of life [21]: good | Owner assessment of the appetite [21]: normal | Owner assessment of the drinking behavior [21]: normal | Systolic blood pressure [21]: 149.3 mmHg | Phosphorus [21]: 1.5 mmol/L | Serum creatinine [21]: 2.9 mg/dL | Potassium [21]: 4.0 mmol/L | Hematocrit [21]: 45.0% | BUN [22]: 20.2 mg/dL | IRIS Stage (based on serum creatinine level) [22]: 3 | Owner assessment - quality of life [22]: good | Owner assessment of the appetite [22]: normal | Owner assessment of the drinking behavior [22]: excessive | Systolic blood pressure [22]: 151.3 mmHg | Phosphorus [22]: 1.4 mmol/L | Serum creatinine [22]: 4.2 mg/dL | Potassium [22]: 4.3 mmol/L | Hematocrit [22]: 44.0% | UPC [22]: 0.1 | Clinical signs related to CKD (evaluated cats, 1 mg/kg po once daily): either remained good/stable or improved in the majority of cats | risk factors for progression of the disease (e.g. UPC, blood pressure, potassium, phosphorus) (feline CKD patients, 1 mg/kg orally once daily): remained stable and within the reference range | IRIS staging (one of the 3 cats with decreased serum creatinine (stage 3->stage 2)): improved by one category | complications of CKD (oral 1 mg/kg bodyweight once daily, evaluated cats): no complications of CKD observed | laboratory parameters related to CKD (serum creatinine) and clinical signs (the other 4 of seven evaluated cats): stable condition
